Experimental data taken from the supplement of paper PMC10307832.

Columns and labels:
Assay in all cases: relative viability (nuclei count vs DMSO), 5 days (fraction); higher = more cells survive
[1] = compound: C1CNCCC1C2=CC(=NN2)C3=CC=NC=C3 + CC(=O)Nc1cccc(-n2c(=O)n(C3CC3)c(=O)c3c(Nc4ccc(I)cc4F)n(C)c(=O)c(C)c32)c1 [Trametinib] (partner 0.02 µM)
Method in brief: (§1)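 Relative viability is defined as nuclei in treated wells over nuclei in vehicle wells. Duplicate plates were run and medians reported. Lung cancer cell lines in 1536-well plates were dosed by pin tool one day after seeding, with one drug or with a fixed anchor-drug dose plus five library-drug doses (not always all listed) in √10 steps, and nuclei were counted after 5 days.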

[2] = compound: C1CNCCC1C2=CC(=NN2)C3=CC=NC=C3 + Nc1nc2[nH]cc(CCc3ccc(C(=O)N[C@@H](CCC(=O)O)C(=O)O)cc3)c2c(=O)[nH]1 [Pemetrexed] (partner 0.2 µM)
Method in brief: as §1

Tanzisertib + Alpelisib = compound: O[C@H]1CC[C@H](Nc2ncc3nc(Nc4c(F)cc(F)cc4F)n([C@H]4CCOC4)c3n2)CC1 [Tanzisertib] + Cc1nc(NC(=O)N2CCC[C@H]2C(N)=O)sc1-c1ccnc(C(C)(C)C(F)(F)F)c1 [Alpelisib] (partner 2 µM)
Method in brief: as §1

Tanzisertib + Decitabine = compound: O[C@H]1CC[C@H](Nc2ncc3nc(Nc4c(F)cc(F)cc4F)n([C@H]4CCOC4)c3n2)CC1 [Tanzisertib] + Nc1ncn([C@H]2C[C@H](O)[C@@H](CO)O2)c(=O)n1 [Decitabine] (partner 2 µM)
Method in brief: as §1

Cell Line	relative viability ([1]; first compound 0.08 µM)	relative viability ([1]; first compound 0.8 µM)	relative viability ([1]; first compound 2.53 µM)	relative viability ([1]; first compound 8 µM)	relative viability ([2]; first compound 0.08 µM)	relative viability ([2]; first compound 0.8 µM)	relative viability ([2]; first compound 2.53 µM)	relative viability ([2]; first compound 8 µM)	relative viability (Tanzisertib + Alpelisib; first compound 0.08 µM)	relative viability (Tanzisertib + Alpelisib; first compound 0.253 µM)	relative viability (Tanzisertib + Alpelisib; first compound 0.8 µM)	relative viability (Tanzisertib + Alpelisib; first compound 2.53 µM)	relative viability (Tanzisertib + Alpelisib; first compound 8 µM)	relative viability (Tanzisertib + Decitabine; first compound 0.08 µM)	relative viability (Tanzisertib + Decitabine; first compound 0.253 µM)	relative viability (Tanzisertib + Decitabine; first compound 0.8 µM)	relative viability (Tanzisertib + Decitabine; first compound 2.53 µM)	relative viability (Tanzisertib + Decitabine; first compound 8 µM)
PC-3 [JPC-3]	0.637	0.718	0.734	0.684	0.966	1.22	1.15	0.998	1.05	1.07	1.12	1.03	0.972	0.836	0.787	0.803	0.801	0.737
EBC-1									0.999	0.789	0.829	0.792	0.697					
HCC-15	0.421	0.387	0.391	0.4	0.221	0.229	0.234	0.211	1.04	0.884	0.924	0.874	0.797	0.66	0.674	0.737	0.659	0.647
NCI-H1563					0.818	0.662	0.961	0.904	0.92	0.935	0.875	0.862	0.977					
COR-L 105	0.42	0.501	0.427	0.47	1.19	1.19	1.12	1.06	1.19	0.832	1.07	1.09	0.924	0.697	0.659	0.643	0.751	0.538
NCI-H520	0.609	0.776	0.666	0.725	0.652	0.743	0.637	0.517	0.958	0.886	1.07	0.937	0.927	0.565	0.483	0.533	0.491	0.459
LU99A	0.48	0.616	0.561	0.543	0.218	0.181	0.153	0.337	0.549	0.519	0.521	0.503	0.456	1.03	0.88	0.984	0.874	0.911
NCI-H1666	0.749	0.87	0.979	0.915	0.788	0.804	0.873	0.909	0.935	1.01	1.06	1.1	1.01	0.766	0.714	0.658	0.704	0.679
NCI-H2170	0.763	0.925	0.915	0.907	0.269	0.283	0.288	0.266	0.98	0.787	0.796	0.779	0.809	0.483	0.479	0.465	0.485	0.435
NCI-H522	0.764	0.716	0.918	0.744	0.844	1.13	0.934	1.26						0.807	0.699	0.618	0.803	0.636
